# In the NIST ThermoML archive (doi:10.1016/j.jct.2011.10.023):
# Numbers after ± are expanded uncertainties.
# Conditions: Liquid, Vibrating tube method
structure (smiles),measurement,setting,value
CCCCCCCCCCCO [1-undecanol],mass density,"298.15 K, 100 kPa",827.7 ± 2.4 kg/m3
same,mass density,"298.15 K, 1000 kPa",828.2 ± 2.4 kg/m3
same,mass density,"298.15 K, 5000 kPa",830.7 ± 2.4 kg/m3
same,mass density,"298.15 K, 10000 kPa",833.6 ± 2.4 kg/m3
same,mass density,"298.15 K, 15000 kPa",836.4 ± 2.4 kg/m3
same,mass density,"298.15 K, 20000 kPa",839.2 ± 2.4 kg/m3
same,mass density,"298.15 K, 25000 kPa",841.8 ± 2.4 kg/m3
same,mass density,"298.15 K, 30000 kPa",844.4 ± 2.4 kg/m3
same,mass density,"298.15 K, 35000 kPa",846.9 ± 2.4 kg/m3
same,mass density,"298.15 K, 40000 kPa",849.4 ± 2.4 kg/m3
same,mass density,"298.15 K, 45000 kPa",851.8 ± 2.4 kg/m3
same,mass density,"298.15 K, 50000 kPa",854.2 ± 2.4 kg/m3
same,mass density,"298.15 K, 55000 kPa",856.5 ± 2.5 kg/m3
same,mass density,"298.15 K, 60000 kPa",858.7 ± 2.5 kg/m3
same,mass density,"308.15 K, 100 kPa",820.9 ± 2.4 kg/m3
same,mass density,"308.15 K, 1000 kPa",821.5 ± 2.4 kg/m3
same,mass density,"308.15 K, 5000 kPa",824 ± 2.4 kg/m3
same,mass density,"308.15 K, 10000 kPa",827.1 ± 2.4 kg/m3
same,mass density,"308.15 K, 15000 kPa",830 ± 2.4 kg/m3
same,mass density,"308.15 K, 20000 kPa",832.9 ± 2.4 kg/m3
same,mass density,"308.15 K, 25000 kPa",835.6 ± 2.4 kg/m3
same,mass density,"308.15 K, 30000 kPa",838.3 ± 2.4 kg/m3
same,mass density,"308.15 K, 35000 kPa",840.9 ± 2.4 kg/m3
same,mass density,"308.15 K, 40000 kPa",843.4 ± 2.4 kg/m3
same,mass density,"308.15 K, 45000 kPa",845.9 ± 2.4 kg/m3
same,mass density,"308.15 K, 50000 kPa",848.3 ± 2.4 kg/m3
same,mass density,"308.15 K, 55000 kPa",850.7 ± 2.5 kg/m3
same,mass density,"308.15 K, 60000 kPa",852.9 ± 2.5 kg/m3
same,mass density,"318.15 K, 100 kPa",814.1 ± 2.4 kg/m3
same,mass density,"318.15 K, 1000 kPa",814.7 ± 2.4 kg/m3
same,mass density,"318.15 K, 5000 kPa",817.4 ± 2.4 kg/m3
same,mass density,"318.15 K, 10000 kPa",820.6 ± 2.4 kg/m3
same,mass density,"318.15 K, 15000 kPa",823.7 ± 2.4 kg/m3
same,mass density,"318.15 K, 20000 kPa",826.6 ± 2.4 kg/m3
same,mass density,"318.15 K, 25000 kPa",829.5 ± 2.4 kg/m3
same,mass density,"318.15 K, 30000 kPa",832.3 ± 2.4 kg/m3
same,mass density,"318.15 K, 35000 kPa",834.8 ± 2.4 kg/m3
same,mass density,"318.15 K, 40000 kPa",837.6 ± 2.4 kg/m3
same,mass density,"318.15 K, 45000 kPa",840.1 ± 2.4 kg/m3
same,mass density,"318.15 K, 50000 kPa",842.6 ± 2.5 kg/m3
same,mass density,"318.15 K, 55000 kPa",845.1 ± 2.5 kg/m3
same,mass density,"318.15 K, 60000 kPa",847.3 ± 2.5 kg/m3
same,mass density,"328.15 K, 100 kPa",807.4 ± 2.4 kg/m3
same,mass density,"328.15 K, 1000 kPa",808 ± 2.4 kg/m3
same,mass density,"328.15 K, 5000 kPa",810.8 ± 2.4 kg/m3
same,mass density,"328.15 K, 10000 kPa",814.1 ± 2.4 kg/m3
same,mass density,"328.15 K, 15000 kPa",817.3 ± 2.4 kg/m3
same,mass density,"328.15 K, 20000 kPa",820.4 ± 2.4 kg/m3
same,mass density,"328.15 K, 25000 kPa",823.3 ± 2.4 kg/m3
same,mass density,"328.15 K, 30000 kPa",826.2 ± 2.4 kg/m3
same,mass density,"328.15 K, 35000 kPa",829 ± 2.4 kg/m3
same,mass density,"328.15 K, 40000 kPa",831.7 ± 2.4 kg/m3
same,mass density,"328.15 K, 45000 kPa",834.4 ± 2.4 kg/m3
same,mass density,"328.15 K, 50000 kPa",837 ± 2.5 kg/m3
same,mass density,"328.15 K, 55000 kPa",839.5 ± 2.5 kg/m3
same,mass density,"328.15 K, 60000 kPa",841.8 ± 2.5 kg/m3
same,mass density,"338.15 K, 100 kPa",800.5 ± 2.4 kg/m3
same,mass density,"338.15 K, 1000 kPa",801.1 ± 2.4 kg/m3
same,mass density,"338.15 K, 5000 kPa",803.9 ± 2.4 kg/m3
same,mass density,"338.15 K, 10000 kPa",807.3 ± 2.4 kg/m3
same,mass density,"338.15 K, 15000 kPa",810.6 ± 2.4 kg/m3
same,mass density,"338.15 K, 20000 kPa",813.8 ± 2.4 kg/m3
same,mass density,"338.15 K, 25000 kPa",816.9 ± 2.4 kg/m3
same,mass density,"338.15 K, 30000 kPa",819.9 ± 2.4 kg/m3
same,mass density,"338.15 K, 35000 kPa",822.8 ± 2.4 kg/m3
same,mass density,"338.15 K, 40000 kPa",825.6 ± 2.4 kg/m3
same,mass density,"338.15 K, 45000 kPa",828.4 ± 2.4 kg/m3
same,mass density,"338.15 K, 50000 kPa",831 ± 2.5 kg/m3
same,mass density,"338.15 K, 55000 kPa",833.6 ± 2.5 kg/m3
same,mass density,"338.15 K, 60000 kPa",836 ± 2.5 kg/m3
same,mass density,"348.15 K, 100 kPa",793.3 ± 2.4 kg/m3
same,mass density,"348.15 K, 1000 kPa",793.8 ± 2.4 kg/m3
same,mass density,"348.15 K, 5000 kPa",797.1 ± 2.4 kg/m3
same,mass density,"348.15 K, 10000 kPa",800.8 ± 2.4 kg/m3
same,mass density,"348.15 K, 15000 kPa",804.3 ± 2.4 kg/m3
same,mass density,"348.15 K, 20000 kPa",807.6 ± 2.4 kg/m3
same,mass density,"348.15 K, 25000 kPa",810.8 ± 2.4 kg/m3
same,mass density,"348.15 K, 30000 kPa",813.9 ± 2.4 kg/m3
same,mass density,"348.15 K, 35000 kPa",816.9 ± 2.4 kg/m3
same,mass density,"348.15 K, 40000 kPa",819.9 ± 2.4 kg/m3
same,mass density,"348.15 K, 45000 kPa",822.7 ± 2.5 kg/m3
same,mass density,"348.15 K, 50000 kPa",825.5 ± 2.5 kg/m3
same,mass density,"348.15 K, 55000 kPa",828.1 ± 2.5 kg/m3
same,mass density,"348.15 K, 60000 kPa",830.7 ± 2.5 kg/m3
same,mass density,"358.15 K, 100 kPa",786 ± 2.4 kg/m3
same,mass density,"358.15 K, 1000 kPa",786.8 ± 2.4 kg/m3
same,mass density,"358.15 K, 5000 kPa",790 ± 2.4 kg/m3
same,mass density,"358.15 K, 10000 kPa",793.9 ± 2.4 kg/m3
same,mass density,"358.15 K, 15000 kPa",797.6 ± 2.4 kg/m3
same,mass density,"358.15 K, 20000 kPa",801.1 ± 2.4 kg/m3
same,mass density,"358.15 K, 25000 kPa",804.4 ± 2.4 kg/m3
same,mass density,"358.15 K, 30000 kPa",807.7 ± 2.4 kg/m3
same,mass density,"358.15 K, 35000 kPa",810.8 ± 2.4 kg/m3
same,mass density,"358.15 K, 40000 kPa",813.9 ± 2.4 kg/m3
same,mass density,"358.15 K, 45000 kPa",816.6 ± 2.5 kg/m3
same,mass density,"358.15 K, 50000 kPa",819.6 ± 2.5 kg/m3
same,mass density,"358.15 K, 55000 kPa",822.4 ± 2.5 kg/m3
same,mass density,"358.15 K, 60000 kPa",824.9 ± 2.5 kg/m3
